From PMC7044277 (Nature Communications, 2020)
Where “and” joins values, the source holds several entries; their conditions need not be identical. Equal values may be shown once.

What was measured:
Assay type in all cases: cell-based
320 non-olfactory GPCRs [1] = target: T1, 320 non-olfactory GPCRs (Homo sapiens, UniProt P08588)
T1 construct: expressed in transfected cells; host or cells: HTLA cells

320 non-olfactory GPCRs [2] = target: 320 non-olfactory GPCRs (Homo sapiens, UniProt P35372); details: receptor OPRM1; replicate values, Fig_4g
320 non-olfactory GPCRs [3] = target: 320 non-olfactory GPCRs (Homo sapiens, UniProt P41146); details: receptor OPRL1; replicate values, Fig_4g
320 non-olfactory GPCRs [4] = target: T2, 320 non-olfactory GPCRs (Homo sapiens, UniProt Q9GZQ4); details: receptor NMUR2; replicate values, Fig_4g
T2 construct: expressed in transfected cells; host or cells: HTLA cells
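For Fold of Basal in this document: compound tested at 1 µM final concentration.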
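For GPCRome agonism screen response in this document: fold over basal response of each receptor without drug.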

T2 sequence (Q9GZQ4 whole entry): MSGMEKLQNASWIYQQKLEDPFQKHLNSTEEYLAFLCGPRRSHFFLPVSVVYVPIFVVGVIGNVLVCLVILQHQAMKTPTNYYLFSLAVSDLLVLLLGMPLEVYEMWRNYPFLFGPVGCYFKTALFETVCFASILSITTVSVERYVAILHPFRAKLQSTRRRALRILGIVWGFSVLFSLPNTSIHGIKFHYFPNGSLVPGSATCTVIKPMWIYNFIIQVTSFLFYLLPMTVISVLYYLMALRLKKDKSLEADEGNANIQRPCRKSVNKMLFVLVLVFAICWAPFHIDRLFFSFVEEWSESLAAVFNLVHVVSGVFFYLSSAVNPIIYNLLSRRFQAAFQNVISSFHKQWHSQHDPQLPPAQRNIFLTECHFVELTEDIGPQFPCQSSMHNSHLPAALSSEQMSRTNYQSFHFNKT
320 non-olfactory GPCRs (Homo sapiens, UniProt P41146), sequence (P41146 whole entry): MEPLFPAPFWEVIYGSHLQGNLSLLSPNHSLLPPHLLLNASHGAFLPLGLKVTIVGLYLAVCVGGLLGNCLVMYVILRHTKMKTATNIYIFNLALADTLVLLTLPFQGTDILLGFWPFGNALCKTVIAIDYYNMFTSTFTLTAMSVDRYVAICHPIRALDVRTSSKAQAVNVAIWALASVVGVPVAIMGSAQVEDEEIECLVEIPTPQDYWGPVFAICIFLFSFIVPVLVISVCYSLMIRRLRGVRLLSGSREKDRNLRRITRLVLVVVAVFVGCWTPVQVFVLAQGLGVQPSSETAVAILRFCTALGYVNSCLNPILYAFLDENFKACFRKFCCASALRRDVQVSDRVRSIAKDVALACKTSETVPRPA
T1 sequence (P08588 whole entry): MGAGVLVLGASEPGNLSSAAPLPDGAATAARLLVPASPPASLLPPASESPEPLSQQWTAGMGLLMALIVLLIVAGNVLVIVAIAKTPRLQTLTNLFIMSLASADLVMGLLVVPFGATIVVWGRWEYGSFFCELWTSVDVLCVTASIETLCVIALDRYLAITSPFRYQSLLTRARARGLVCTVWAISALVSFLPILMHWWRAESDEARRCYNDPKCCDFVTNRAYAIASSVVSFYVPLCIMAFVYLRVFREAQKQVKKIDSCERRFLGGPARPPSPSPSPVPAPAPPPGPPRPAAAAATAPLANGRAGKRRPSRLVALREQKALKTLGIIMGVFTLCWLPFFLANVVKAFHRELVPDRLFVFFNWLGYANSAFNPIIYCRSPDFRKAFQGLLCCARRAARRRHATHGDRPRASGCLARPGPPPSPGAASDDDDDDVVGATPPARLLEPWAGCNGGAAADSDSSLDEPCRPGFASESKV
320 non-olfactory GPCRs (Homo sapiens, UniProt P35372), sequence (P35372 whole entry): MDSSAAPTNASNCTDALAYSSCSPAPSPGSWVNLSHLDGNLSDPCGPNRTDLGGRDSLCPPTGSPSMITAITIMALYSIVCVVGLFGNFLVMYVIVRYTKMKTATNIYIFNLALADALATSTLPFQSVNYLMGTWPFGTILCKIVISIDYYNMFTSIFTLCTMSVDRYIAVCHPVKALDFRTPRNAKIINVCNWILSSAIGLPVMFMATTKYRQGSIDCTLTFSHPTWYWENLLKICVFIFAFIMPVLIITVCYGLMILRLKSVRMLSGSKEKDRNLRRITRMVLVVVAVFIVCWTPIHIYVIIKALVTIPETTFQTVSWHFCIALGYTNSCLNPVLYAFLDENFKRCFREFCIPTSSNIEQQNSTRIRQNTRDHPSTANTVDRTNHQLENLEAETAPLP

CCOc1cccc2cc(C(C)NCC3(O)CCCCC3)oc12 (stereo not shown) [O4LE6]
Fold of Basal (320 non-olfactory GPCRs [1]): 0.9495 and 0.9531 and 1.111 and 0.8261
GPCRome agonism screen response (320 non-olfactory GPCRs [2]): 0.5449 and 0.6973 and 1.0539 and 0.5973
GPCRome agonism screen response (320 non-olfactory GPCRs [3]): 0.6174 and 0.5517 and 0.7699 and 0.8115
GPCRome agonism screen response (320 non-olfactory GPCRs [4]): 1.0233 and 1.105 and 1.159 and 0.9738
